Reference: US20250382556A1, “MODULATION OF THE BRANCHED-CHAIN METABOLITE CONTENT OF FRUITS AND VEGETABLES” (BOARD OF TRUSTEES OF MICHIGAN STATE UNIVERSITY, priority 2024, published 2025)

Test system: flowering quince peel
Experiment: Free amino acid content of flowering quince peel via UPLC-MS/MS after AHAS inhibitor treatment
Format: in vivo, Chaenomeles x superba
Design: key to free asparagine content compared to control / free aspartate content compared to control / free cysteine content compared to control / free glutamate content compared to control / free glutamine content compared to control / free glycine content compared to control / free lysine content compared to control / free phenylalanine content compared to control / free threonine content compared to control / free tryptophan content compared to control / free tyrosine content compared to control / free alanine content compared to control / free arginine content compared to control: —: Dash indicates no significant difference between treatments
Method: Whole apple fruit, freshly harvested and at an early stage of ripening (‘ripening’), were held at room temperature (22° C.) and rubbed daily with 3 mL of a freshly made 1mM solution of the inhibitor rimsulfuron (N-((4,6-dimethoxypyrimidin-2-yl)aminocarbonyl)-3-(ethylsulfonyl)-2-pyridinesulfonamide, made from DuPont MATRIX® SG, 25% w/w active ingredient; 0.1% Tween 20) or water solution containing 0.1% Tween 20 before preparation with further treatments. Flowering quince fruit were smaller than the apple fruit and had 2 mL of the control and treatment solutions applied daily at 22° C. ‘Gala’, ‘Empire’, and ‘Jonagold’ apple fruit were treated for four, nine, and seven days before further preparation, respectively. Flowering quince fruit were treated for six days before analysis. Headspace volatile emissions were monitored for three or four representative fruits during the incubation/treatment period to determine appropriate times for further treatments. During method testing, 1 mM solutions of the imidazolinone imazamox was also assessed with apple fruit (2-[4,5-dihydro-4-methyl-4-(1-methylethyl)-5-oxo-1H-imidazol-2-yl]-5-(methoxymethyl)-3-pyridinecarboxylic acid, made from RAPTOR®, 12.1% w/w active ingredient; 0.1% Tween 20).
After volatile analysis, apple peel disks, collected peel of flowering quince, and ‘Valery’ pulp section samples were held at −80° C. for further amino acid analysis.
Frozen samples were ground to a powder in liquid nitrogen-chilled mortar and pestles. About 500 mg of tissue was vortexed for 10 sec in 2 mL of room temperature (22° C.) extraction solution (1:1:1 water:acetonitrile:ethanol, v/v/v) spiked with 2 nmoles of U-^13C,^15N labeled amino acids (MilliporeSigma) as internal standards and heated for 15 min in a 65° C. water bath. Extracts were briefly chilled on ice before centrifugation at 4400×g for 15 min at 4° C. The supernatant was filtered by centrifugation (0.2 μm nylon centrifugal filter; Costar, Corning) at 21000×g for 5 min at room temperature. 10 μL of the filtrate was transferred to an autosampler vial and diluted 100-fold with 990 μL of 10.1 mM perfluorohexanoic acid (PFHA) spiked with […] of internal standard. Thus the final concentration of internal standard was ˜2 μM.
An amino acid standard series was prepared from a premade mixture (MilliporeSigma, AAS18) that contained equal molar amounts of cystine and all 20 proteinogenic amino acids save for tryptophan, asparagine, glutamine, and cysteine. An equal molar mixture of tryptophan, asparagine, glutamine, and cysteine was subsequently prepared. To avoid dilution errors or artefacts from differing buffers, these amino acid stocks were aliquoted and desiccated such that a five-part standard series ranging from 250 μM to 25 nM would be produced upon resuscitation with 10 μL of spiked extraction buffer and 990 μL spiked PFHA solution.
Samples and amino acids were held overnight at −20° C. before analysis. Amino acids were analyzed with a Xevo TQ-S Micro UPLC (H-Class)-MS/MS (Waters) at the Michigan State University Mass Spectrometry and Metabolomics Core. Conditions were as follows. HPLC column: Acquirt UPLC HSS T3, 2.1×100 mm, 1.7 μm particle size (Waters), with a 0.2 μm pre-column filter (Waters). Mobile phase: A) 10 mM PFHA in water, B) acetonitrile. LC gradient: linear gradient, slope setting=6, flow rate=0.3 mL·min^−1, step 1) 0 min, 100% A, 0% B, 2) 1 min, 100% A, 0% B, 3) 8 min, 35% A, 65% B, 4) 8.01 min, 10% A, 90% B, 5) 9 min, 10% A, 90% B, 6) 9.01 min, 100% A, 0% B, 7) 13 min, 100% A, 0% B. Column temp: 40° C. Autosampler temp: 10° C. Injection volume: 10 μL. Tune parameters: electrospray ionization, standard ESI probe, capillary voltage=+1.0 kV, source temp=120° C., desolvation temp=350° C., desolvation gas=800 L·hr^−1, cone gas=40 L·hr^−1. MS collection was split into three phases and were adjusted after checking the retention time of several samples; however proline was missed for apple and flowering quince samples. […]

[1] = Dr. Banks Pink flowering quince peel, 1 mM daily, six days

With `CCS(=O)(=O)c1cccnc1S(=O)(=O)NC(=O)Nc1nc(OC)cc(OC)n1` [rimsulfuron, N-((4,6-dimethoxypyrimidin-2-yl)aminocarbonyl)-3-(ethylsulfonyl)-2-pyridinesulfonamide] the “free alanine content compared to control” value [1] was “—”, the “free arginine content compared to control” value [1] was “—” and the “free asparagine content compared to control” value [1] was “—”. The “free aspartate content compared to control” value [1] was “—”, the “free cysteine content compared to control” value [1] was “—” and the “free glutamate content compared to control” value [1] was “—”. The “free glutamine content compared to control” value [1] was “—”, the “free glycine content compared to control” value [1] was “—” and the “free histidine content compared to control” value [1] was 166.5 ± 20.1%. For the same compound, the “free isoleucine content compared to control” value [1] was 51.3 ± 9.1%, the “free leucine content compared to control” value [1] was 81.9 ± 5.4% and the “free lysine content compared to control” value [1] was “—”. For the same compound, the “free methionine content compared to control” value [1] was 245.3 ± 38.5%, the “free phenylalanine content compared to control” value [1] was “—” and the “free serine content compared to control” value [1] was 302.1 ± 32.0%. The “free threonine content compared to control” value [1] was “—”, the “free tryptophan content compared to control” value [1] was “—” and the “free tyrosine content compared to control” value [1] was “—”. For the same compound, the “free valine content compared to control” value [1] was 28.1 ± 3.8%, the leucine content reduced (flowering quince peel tissue) was 18.1% and the “total content of free amino acids” value (flowering quince peel tissue) was “not significantly altered”. For the same compound, the “valine and isoleucine collectively reduced” value (flowering quince peel tissue) was 64.2%.
